Results on two compounds are retold here after patent US8226972B2, “Vaginal delivery of drugs” (FemmePharma Holding Company, Inc., priority 2001, dated 2012).

In one assay the test system is urgency incontinence. The assay can be described thus: Example 4: clinical case studies, urgency incontinence / urinary frequency, urgency and nocturia. The assay is classed as in vivo, human. Conditions: person; 2 mg orally twice a day. On the procedure:
A person developed urgency incontinence two years after their laparoscopically assisted vaginal hysterectomy. […] However they experienced side effects, such as dry mouth, from the drug. Two weeks later, they started applying oxybutynin (5 mg) into the vagina at bed time, instead of Ditropan XL. […] The patient used vaginal oxybutynin (5 mg) at bed time for 6 months.
A person with a history of chronic pelvic pain and multiple surgical procedures, including pain mapping under conscious sedation and repair of occult bilateral inguinal hernias, developed urinary frequency, urgency and nocturia. Their urine analysis and urine culture were negative for signs of urinary tract infection. Their treatment began with vaginal oxybutynin (5 mg) once daily, at bed time, applied into the vagina.

Another assay relates to bladder. The assay can be described thus: Example 2: bladder contractile response to intra-arterial Ach. It counts as in vivo, rabbit. Conditions: high dose of the free base form. An excerpt: 16 mature female New Zealand white rabbits were separated into two groups of eight. The rabbits in Group 1 received a high dose oxybutynin formulations; and the rabbits in Group 2 received a low dose oxybutynin formulation. For the high dose, 3 grams (g) of oxybutynin HCl were suspended in 6 g of gel (yielding a concentration of 0.5 g Oxybutynin/g gel) and 3 g of the formulation were placed in the vagina. For the low dose, 0.3 g of oxybutynin HCl were suspended in 6 g of gel (yielding a concentration of 0.05 g Oxybutynin/g gel), and 3 g of the formulation were placed in the vagina.
Acetylcholine (Ach), a chemical that causes the bladder muscle (detrusor) to squeeze or contract, was injected through the intra-arterial polyethylene catheter in a volume of 0.31-0.39 mL (i.e., 0.1 mL/kg of rabbit), followed by 0.2 mL of heparinized saline. Change of intravesical pressure following the administration of Ach (10^−6 mol/kg) was monitored by the pressure transducer and recorded on a Grass model 7D polygraph. A 10-minute interval passed between Ach administrations, and three flushes of normal saline, in an amount of 0.1 ml/kg of rabbit, were administered. Three responses to Ach were performed at 10-minute intervals to ensure consistent responses.
After the third Ach administration, the application of the oxybutynin containing gel was administered to the vagina and the responses to Ach were determined at 15-minute intervals for 2 hours. When the response to Ach was reduced, then the time period was extended to 4 hours. At the end of the experiment, a second cystometric curve was generated.
The protocol described in Example 1 was followed in this experiment, with the following changes. The infusion pump was turned on and, at an infusion rate of 1.42 mL/minute, a cystometric curve was generated.

Counter-ions that a name gives are not always drawn.

Regarding `Cc1ccc(O)c([C@H](CCN(C(C)C)C(C)C)c2ccccc2)c1` [DETROL®, tolterodine tartrate], the “improvement of urgency incontinence” value in the assay on urgency incontinence is recorded as “slight improvement”.
Regarding `CCN(CC)CC#CCOC(=O)C(O)(c1ccccc1)C1CCCCC1` (centres unmarked) [free base form, oxybutynin], the “response to Ach” value with bladder is recorded as “no effect”.
